Laboratory results taken from article PMC5674494, “Use of Cyclic Backbone NGR-Based SPECT to Increase Efficacy of Postmyocardial Infarction Angiogenesis Imaging” (Contrast Media & Molecular Imaging, 2017).
Positions of bridges follow the written chain, without caps; N, C: chain ends. Residues, ends and D or L forms follow the SMILES beside them. *: point of attachment. X1 = N[C@@H](CSC1CC(=O)N(CC2CCC(C(=O)NCCCCC(C(=O)O)N(CCN(CC(=O)O)CC(=O)O)CCN(CC(=O)O)CC(=O)O)CC2)C1=O)C(=O)*

What was measured:
[1] = in vitro; type: in vitro ADME; details: human, whole blood
Description: ^111[…], or ^111In-co(NGR)4 was added to […] human blood in heparin (BD Biosciences, […], The Netherlands). Blood stability was tested at 0, 10, 30, and 50 min. For each time point imaging agents were separated from blood cells and proteins by adding 0.5 mL MeCN (VWR International BV, Breda, The Netherlands) to 0.5 mL blood sample followed by centrifugation (2,000 ×g, 3 min). Supernatant samples were analyzed by HPLC using the above-mentioned method.

[2] = Octanol/water partition coefficient (logP); type: physicochemical; details: 111In-labeled tracer, separate experiment 2 of 3, N = 3, method as ref 22
Description: The logP value of each compound was determined in three separate experiments as described previously.

[3] = Micro-SPECT myocardial perfusion, SUV of 99mTc-sestamibi in heart segments; type: in vivo, Swiss mice; details: i.v., last of 4 15-min SPECT frames, mean ± SEM
Description: In 10–12-week-old male Swiss mice, we induced MI by ligation of the left anterior descending coronary artery (LAD) as described before to test coNGR (n = 5) or co(NGR)4 (n = 8). […] SPECT imaging was performed 7 days after MI or sham surgery. All animals were held under the guidelines of the animal care facility (Maastricht University). All animal experiments were approved by the Committee for Animal Welfare of Maastricht University.
Mice were anesthetized with isoflurane (induction 2.5%; maintenance 1.5%), a catheter was placed in a tail vein, and animals were positioned in the SPECT camera (MILabs, Utrecht, The Netherlands). Prior to image acquisition, a bolus injection of ^99mTc-sestamibi and ^111In-coNGR or ^111In-co(NGR)4 was given intravenously (i.v.) in a maximum volume of 200 µL. Table S1 in Supplementary Material available online at https://doi.org/10.1155/2017/8638549 provides an overview of the average injected dose. Immediately after injection, 4 consecutive time frames of 15 min each were acquired. For image quantification we used the last of these frames.
Acquired list mode data was reconstructed using MILabs reconstruction software (version 2.51) employing the POS-EM algorithm (6 iterations and 16 subsets, reconstructed at a voxel size of 0.4 mm). ^99mTc and ^111In images were reconstructed by selecting photo peak and background energy levels as described before.
To allow quantification of imaging agent uptake, in vivo isotope-specific conversion factors (CF) were determined for the 0.6 mm collimator in a representative phantom with a known activity. Using the previously described method the following conversion factors (CF), CF99mTc 612 MBq/mL and CF111In 643 MBq/mL, were found.
PMOD 3.7 cardiac tool PCARD (PMOD technologies, Zürich, Switzerland) was used to segment the heart in the 17-segment model. Uptake per segment was subsequently expressed as a mean standardized uptake value (SUVmean), also using the previously described method. For body weight, we assumed that 1 g equalled 1 mL.

[4] = MI mice (n = 5), coNGR group, 7 days after LAD ligation
[5] = MI mice (n = 8), co(NGR)4 group, 7 days after LAD ligation
[6] = Sham-operated mice (n = 6), co(NGR)4 group, 7 days after surgery

## CC(=O)N[C@H]1CSSC[C@@H](C(=O)NCC(=O)NCC(=O)N[C@@H](CCCCNC(=O)[C@@H](N)CSC2CC(=O)N(CC3CCC(C(=O)NCCCCC(C(=O)O)N(CCN(CC(=O)O)CC(=O)O)CCN(CC(=O)O)CC(=O)O)CC3)C2=O)C(N)=O)NC(=O)[C@H](CCCNC(=N)N)NC(=O)CNC(=O)[C@H](CC(N)=O)NC1=O (stereo partly drawn) [cNGR, cyclic(NAc-Cys-Asn-Gly-Arg-Cys-Gly-Gly-Lys)] (Ac-CNGRCGGK(X1)-NH2; disulfide 1-5)
[1]
  remaining at 50 min: 7.55%
[2]
  logP2: −4.17 ± 0.01

## [C-]#[N+]CC(C)(C)OC.[C-]#[N+]CC(C)(C)OC.[C-]#[N+]CC(C)(C)OC.[C-]#[N+]CC(C)(C)OC.[C-]#[N+]CC(C)(C)OC.[C-]#[N+]CC(C)(C)OC.[Tc] [^99mTc-sestamibi]
[3]; [4]
  SUV of 99mTc-sestamibi, segment 1. Basal anterior: 2.46 ± 0.45
  SUV of 99mTc-sestamibi, segment 2. Basal anteroseptal: 2.28 ± 0.39
  SUV of 99mTc-sestamibi, segment 3. Basal inferoseptal: 2.33 ± 0.38
  SUV of 99mTc-sestamibi, segment 4. Basal inferior: 2.60 ± 0.56
  SUV of 99mTc-sestamibi, segment 5. Basal inferolateral: 2.23 ± 0.63
  SUV of 99mTc-sestamibi, segment 6. Basal anterolateral: 2.14 ± 0.52
  SUV of 99mTc-sestamibi, segment 7. Mid anterior: 1.41 ± 0.28
  SUV of 99mTc-sestamibi, segment 8. Mid anteroseptal: 2.46 ± 0.39
  SUV of 99mTc-sestamibi, segment 9. Mid inferoseptal: 2.27 ± 0.53
  SUV of 99mTc-sestamibi, segment 10. Mid inferior: 1.64 ± 0.67
  SUV of 99mTc-sestamibi, segment 11. Mid inferolateral: 0.75 ± 0.24
  SUV of 99mTc-sestamibi, segment 12. Mid anterolateral: 0.42 ± 0.09
  SUV of 99mTc-sestamibi, segment 13. Apical anterior: 0.71 ± 0.30
  SUV of 99mTc-sestamibi, segment 14. Apical septal: 1.67 ± 0.39
  SUV of 99mTc-sestamibi, segment 15. Apical inferior: 1.30 ± 0.31
  SUV of 99mTc-sestamibi, segment 16. Apical lateral: 0.59 ± 0.26
  SUV of 99mTc-sestamibi, segment 17. Apex: 0.98 ± 0.35
[3]; [5]
  SUV of 99mTc-sestamibi, segment 1. Basal anterior: 2.60 ± 0.70
  SUV of 99mTc-sestamibi, segment 2. Basal anteroseptal: 3.68 ± 0.42
  SUV of 99mTc-sestamibi, segment 3. Basal inferoseptal: 3.97 ± 0.49
  SUV of 99mTc-sestamibi, segment 4. Basal inferior: 3.06 ± 0.54
  SUV of 99mTc-sestamibi, segment 5. Basal inferolateral: 1.66 ± 0.47
  SUV of 99mTc-sestamibi, segment 6. Basal anterolateral: 1.60 ± 0.55
  SUV of 99mTc-sestamibi, segment 7. Mid anterior: 1.35 ± 0.31
  SUV of 99mTc-sestamibi, segment 8. Mid anteroseptal: 3.56 ± 0.47
  SUV of 99mTc-sestamibi, segment 9. Mid inferoseptal: 3.57 ± 0.68
  SUV of 99mTc-sestamibi, segment 10. Mid inferior: 2.21 ± 0.52
  SUV of 99mTc-sestamibi, segment 11. Mid inferolateral: 0.68 ± 0.07
  SUV of 99mTc-sestamibi, segment 12. Mid anterolateral: 0.62 ± 0.07
  SUV of 99mTc-sestamibi, segment 13. Apical anterior: 1.04 ± 0.25
  SUV of 99mTc-sestamibi, segment 14. Apical septal: 2.68 ± 0.30
  SUV of 99mTc-sestamibi, segment 15. Apical inferior: 2.06 ± 0.24
  SUV of 99mTc-sestamibi, segment 16. Apical lateral: 0.67 ± 0.11
  SUV of 99mTc-sestamibi, segment 17. Apex: 1.25 ± 0.32
[3]; [6]
  SUV of 99mTc-sestamibi, segment 1. Basal anterior: 2.91 ± .026
  SUV of 99mTc-sestamibi, segment 2. Basal anteroseptal: 2.72 ± 0.32
  SUV of 99mTc-sestamibi, segment 3. Basal inferoseptal: 2.89 ± 0.33
  SUV of 99mTc-sestamibi, segment 4. Basal inferior: 3.07 ± 0.33
  SUV of 99mTc-sestamibi, segment 5. Basal inferolateral: 3.03 ± 0.30
  SUV of 99mTc-sestamibi, segment 6. Basal anterolateral: 2.89 ± 0.20
  SUV of 99mTc-sestamibi, segment 7. Mid anterior: 3.00 ± 0.22
  SUV of 99mTc-sestamibi, segment 8. Mid anteroseptal: 3.10 ± 0.28
  SUV of 99mTc-sestamibi, segment 9. Mid inferoseptal: 3.16 ± 0.26
  SUV of 99mTc-sestamibi, segment 10. Mid inferior: 3.03 ± 0.29
  SUV of 99mTc-sestamibi, segment 11. Mid inferolateral: 3.06 ± 0.34
  SUV of 99mTc-sestamibi, segment 12. Mid anterolateral: 2.77 ± 0.22
  SUV of 99mTc-sestamibi, segment 13. Apical anterior: 2.93 ± 0.22
  SUV of 99mTc-sestamibi, segment 14. Apical septal: 3.23 ± 0.24
  SUV of 99mTc-sestamibi, segment 15. Apical inferior: 2.88 ± 0.32
  SUV of 99mTc-sestamibi, segment 16. Apical lateral: 2.44 ± 0.20
  SUV of 99mTc-sestamibi, segment 17. Apex: 2.71 ± 0.25
